Each structure is given as a SMILES string. Where a name gives a salt, the structure may show the parent alone.

Sequence of AaDOP2 (H6D5H2 1-476): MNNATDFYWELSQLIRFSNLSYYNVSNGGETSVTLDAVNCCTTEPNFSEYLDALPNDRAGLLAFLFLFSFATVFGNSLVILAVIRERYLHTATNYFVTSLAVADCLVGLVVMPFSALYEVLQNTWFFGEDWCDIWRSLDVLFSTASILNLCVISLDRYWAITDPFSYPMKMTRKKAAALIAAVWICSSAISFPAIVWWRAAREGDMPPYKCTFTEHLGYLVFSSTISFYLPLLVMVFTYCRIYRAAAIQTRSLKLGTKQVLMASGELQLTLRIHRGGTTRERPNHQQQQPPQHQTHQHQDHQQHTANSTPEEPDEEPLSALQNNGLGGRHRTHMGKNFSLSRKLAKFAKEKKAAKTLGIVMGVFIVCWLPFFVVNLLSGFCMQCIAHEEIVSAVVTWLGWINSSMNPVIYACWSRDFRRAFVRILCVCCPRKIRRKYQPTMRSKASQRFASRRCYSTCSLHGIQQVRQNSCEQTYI

The first test addresses AaDOP2 (Aedes aegypti, UniProt H6D5H2). Put plainly: AaDOP2 antagonist screen of the LOPAC1280 library (HEK-CRELuc-Aadop2 cells, luminescence). In kind it is cell-based.
Conditions: not given
Regarding `C[C@]12C=CC(=O)C=C1CC[C@H]1[C@@H]3C[C@@H](O)[C@](O)(C(=O)CO)[C@@]3(C)C[C@H](O)[C@@]12F` [Compound 1190, Triamcinolone], the “Compound effect (percent receptor signaling in presence of test compound, relative lux units relative to the SCH23390 control)” value is listed as 108.
The same measure, in the same setting: in the case of `CC(COc1ccc(/C=C/c2ccccc2)cc1)[N+](C)(C)C.[I-]` (stereo not drawn) [Compound 1192, N,N,N-trimethyl-1-(4-trans-stilbenoxy)-2-propylammonium iodide] it was 79; in that of `N#CC(C#N)=C(N)/C(C#N)=C/c1ccc(O)cc1` [Compound 1194, Tyrphostin AG 112], 118.
The same measure, in the same setting: in the case of `N#CC(C#N)=Cc1ccc(O)c(O)c1` [Compound 1196, Tyrphostin 23] it was 79; in that of `Cc1ccc(S(=O)(=O)N[C@@H](CCCCN)C(=O)CCl)cc1.Cl` [Compound 1198, Na-p-Tosyl-L-lysine chloromethyl ketone hydrochloride], 100; in that of `N#CC(C#N)=Cc1cc(O)c(O)c(O)c1` [Compound 1199, Tyrphostin 25], 113.
As to `FC(F)(F)c1ccccc1-n1ccnc1` [Compound 1200, 1-[2-(Trifluoromethyl)phenyl]imidazole], the “Compound effect (percent receptor signaling in presence of test compound, relative lux units relative to the SCH23390 control)” value worked out at 86.
On the same count and under the same terms, next, `CC(=O)O[C@H]1C(=O)[C@@]2(C)[C@H]([C@H](OC(=O)c3ccccc3)[C@]3(O)C[C@H](OC(=O)[C@H](O)[C@@H](NC(=O)c4ccccc4)c4ccccc4)C(C)=C1C3(C)C)[C@]1(OC(C)=O)CO[C@@H]1C[C@@H]2O` [Compound 1201, Taxol]: 84; `CCCCNc1ccc(C(=O)OCCN(C)C)cc1` [Compound 1202, Tetracaine hydrochloride]: 78.
Same read-out and setting: next, `N#C/C(=C\c1ccc(O)c(O)c1)C(N)=S` [Compound 1203, Tyrphostin 47]: 61; `N#CC(C#N)=C(N)/C(C#N)=C/c1cc(O)c(O)c(O)c1` [Compound 1204, Tyrphostin 51]: 122; `COc1cc(/C=C(\C#N)C(=O)c2ccc(O)c(O)c2)cc(I)c1O` [Compound 1206, I-OMe-Tyrphostin AG 538]: 96.
The same measure, in the same setting: next, `N#C/C(=C\c1ccc(O)c(O)c1)C(=O)c1ccc(O)c(O)c1` [Compound 1207, Tyrphostin AG 538]: 75.
For the compound `COc1cc(Cc2cnc(N)nc2N)cc(OC)c1OC` [Compound 1208, Trimethoprim], the “Compound effect (percent receptor signaling in presence of test compound, relative lux units relative to the SCH23390 control)” value came out at 92.
On the same count and under the same terms, in the case of `CNCC[C@@H](Oc1ccccc1C)c1ccccc1` [Compound 1209, Tomoxetine] it was 79; in that of `COC(=O)c1c(-c2cc(OC)c(OC)c(OC)c2)c2ccnc(OCc3ncccn3)c2c(=O)n1Cc1ccnc(C)c1` [Compound 1210, T-0156], 56; in that of `CN1[C@@H]2CC[C@H]1C[C@@H](OC(=O)c1cc(Cl)cc(Cl)c1)C2` [Compound 1211, 3-Tropanyl-3,5-dichlorobenzoate], 97.
The same measure, in the same setting: in the case of `C/C=C(/C)C(=O)O[C@H]1C(C)=C2[C@H]([C@@H]1OC(=O)CCCCCCC)[C@@](C)(OC(C)=O)C[C@H](OC(=O)CCC)[C@@]1(O)[C@H]2OC(=O)[C@@]1(C)O` [Compound 1215, Thapsigargin] it was 103.
Still for that read-out and setting: in the case of `N#CC(C#N)=Cc1ccc([N+](=O)[O-])c(O)c1` [Compound 1216, Tyrphostin AG 126] it was 100; in that of `CC/C(=C(\c1ccccc1)c1ccc(OCCN(C)C)cc1)c1ccccc1` [Compound 1217, Tamoxifen citrate], 87.
For `CC(C)(C)c1ccc(C(O)CCCN2CCC(C(O)(c3ccccc3)c3ccccc3)CC2)cc1` (stereo not shown) [Compound 1218, Terfenadine], the “Compound effect (percent receptor signaling in presence of test compound, relative lux units relative to the SCH23390 control)” value is recorded as 41.
Still for that read-out and setting: next, `Cl.O=c1[nH]oc2c1CCNC2` [Compound 1220, THIP hydrochloride]: 95; `O=C(CCCN1CCC(O)(c2cccc(C(F)(F)F)c2)CC1)c1ccc(F)cc1` [Compound 1221, Trifluperidol hydrochloride]: 68; `CN1[C@@H]2CC[C@H]1CC(OC(=O)c1c[nH]c3ccccc13)C2.Cl` (stereo partly shown) [Compound 1222, 3-Tropanyl-indole-3-carboxylate hydrochloride]: 89.
With `CCCCNc1c(C(=O)OCC)c(C)nc2c1cnn2CC` [Compound 1223, Tracazolate], the “Compound effect (percent receptor signaling in presence of test compound, relative lux units relative to the SCH23390 control)” value was 113.
Still for that read-out and setting: next, `C[N+]1(C)C2CCC1CC(OC(=O)c1c[nH]c3ccccc13)C2.[I-]` (stereo not shown) [Compound 1224, 3-Tropanylindole-3-carboxylate methiodide]: 91; `Cc1scc2c1N(C(=O)CN1CCN(C)CC1)c1ccccc1NC2=O` [Compound 1225, Telenzepine dihydrochloride]: 77; `S=C(NC1CCCCC1)N1CCC(c2cnc[nH]2)CC1` [Compound 1226, Thioperamide maleate]: 90.
Still for that read-out and setting: in the case of `CC(C)(C)c1cc(C=C(C#N)C#N)cc(C(C)(C)C)c1O` [Compound 1230, Tyrphostin A9] it was 25; in that of `CP(=O)(O)C1=CCNCC1` [Compound 1231, TPMPA], 112; in that of `CCCCC/C=C\C[C@@H](O)/C=C/c1cccc(C[C@@H](O)CCCCO)n1` [Compound 1232, U-75302], 107.

The test is the same for the next values; noted with them: 10 µM compound, 300 nM dopamine, 2 hr; hit = compound effect <20.
Consider `Cc1ccc(/C(=C\CN2CCCC2)c2ccccn2)cc1.Cl` [Compound 1193, Triprolidine hydrochloride], for which the “Compound effect (percent receptor signaling in presence of test compound, relative lux units relative to the SCH23390 control)” value came out at 78%.
On the same count and under the same terms, next, `S=C([S-])OC1CC2CC1C1CCCC21.[K+]` [Compound 1213, D-609 potassium]: 87%; `CCN(CC)C(=O)N[C@H]1C[C@@H]2c3cccc4[nH]cc(c34)C[C@H]2N(C)C1` [Compound 1228, R(+)-Terguride]: 73%.
